Among the test systems are UACC-257; HCT-15; SF-295; OVCAR-5; CAKI-1; OVCAR-8; NCI-H522; A498; SK-MEL-28; OVCAR-3; SNB-75; KM12; SK-MEL-2; EKVX; SR; UO-31; TK-10; HCC 2998.
Test in all cases: growth of human tumour cells (NCI), 48 h

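Cells were grown in 96-well plates and exposed to each compound for 48 hours at five concentrations; endpoints were interpolated linearly between bracketing concentrations, or set to the highest concentration if not reached. The concentration for 50% growth inhibition is given as GI50.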 Active and inactive are the calls of the source. Cut-off read from the data, not from the text of the source: active = GI50 up to about 1.1 µM and inactive = higher.

As for `COc1ccc2c(c1)[n+]([O-])c(C(N)=O)c(N)[n+]2[O-]`, the GI50 with UACC-257 is 28.6 µM (inactive); in the assay with HCT-15 it was 61 µM; in the assay on SF-295, > 100 µM (inactive); with OVCAR-5, > 100 µM (inactive); in the assay with CAKI-1, > 100 µM (inactive); in the assay on OVCAR-8 it was 95.3 µM (inactive). Further, the GI50 is 17.1 µM (inactive) in the assay with NCI-H522; > 100 µM (inactive) in the assay with A498; > 100 µM (inactive) in the assay with SK-MEL-28; 32.7 µM (inactive) with OVCAR-3; 65.6 µM (inactive) in the assay on SNB-75; 59.2 µM (inactive) with KM12. The GI50 in the assay on SK-MEL-2, with EKVX, in the assay on SR and in the assay on UO-31 was > 100 µM (inactive) in each case.
`S=c1sc2c(n1-c1ccccc1)N=CNC2S` (stereo unspecified): the GI50 in the assay on UACC-257 was 48.8 µM (inactive); with TK-10, > 100 µM (inactive); in the assay on HCC 2998, 33.1 µM (inactive); with HCT-15, 97.3 µM; in the assay on SF-295, 84.7 µM (inactive); in the assay with OVCAR-5, > 100 µM (inactive). Besides, the GI50 in the assay on CAKI-1 is > 100 µM (inactive); in the assay on OVCAR-8, > 100 µM (inactive); in the assay on NCI-H522, 45.5 µM (inactive); in the assay with SK-MEL-28, > 100 µM (inactive); with OVCAR-3, 77.1 µM (inactive); with SNB-75 it was 56.6 µM (inactive). Moreover, the GI50 in the assay with KM12 is > 100 µM (inactive); in the assay on SK-MEL-2, > 100 µM (inactive); with EKVX, 64.1 µM (inactive); with SR, 95.9 µM (inactive); in the assay on UO-31 it was 37.3 µM (inactive).
Consider `O=[N+]([O-])c1ccc(/C=C/c2ccc(/C=C/c3ccc([N+](=O)[O-])cc3[N+](=O)[O-])cc2)c([N+](=O)[O-])c1`, for which the GI50 with UACC-257 is > 100 µM (inactive); with TK-10, > 100 µM (inactive); in the assay on HCC 2998, > 100 µM (inactive); in the assay on HCT-15, more than 100 µM; in the assay on SF-295, > 100 µM (inactive); in the assay with OVCAR-5, > 100 µM (inactive). The GI50 in the assay with CAKI-1, in the assay with OVCAR-8, in the assay with A498, with SK-MEL-28, with OVCAR-3 and with SNB-75 was > 100 µM (inactive) each time. For the same compound, the GI50 in the assay on KM12, with SK-MEL-2, with EKVX and in the assay with UO-31 was > 100 µM (inactive) throughout.
As for `COc1ccc(Br)c(CCCCC(=O)O)c1`, the GI50 with UACC-257 is > 100 µM (inactive); with TK-10, > 100 µM (inactive); in the assay on HCC 2998 it was > 100 µM (inactive); in the assay on HCT-15, more than 100 µM; with SF-295, > 100 µM (inactive); in the assay with CAKI-1, > 100 µM (inactive). Further, the GI50 in the assay with OVCAR-8, in the assay on A498, in the assay on SK-MEL-28, in the assay with OVCAR-3, in the assay on SNB-75 and with EKVX was > 100 µM (inactive) in each case.
With `O=C(CC1(O)C(=O)Nc2ccccc21)c1ccco1` (stereo unspecified), the GI50 in the assay with UACC-257 is > 100 µM (inactive); with TK-10, > 100 µM (inactive); in the assay with HCT-15, more than 100 µM; in the assay with SF-295, > 100 µM (inactive); in the assay on OVCAR-5 it was > 100 µM (inactive); in the assay with CAKI-1, > 100 µM (inactive). Besides, the GI50 in the assay with OVCAR-8 was > 100 µM (inactive); with NCI-H522, > 100 µM (inactive); with A498, > 100 µM (inactive); in the assay on SK-MEL-28 it was > 100 µM (inactive); in the assay with OVCAR-3, > 100 µM (inactive); in the assay with SNB-75, 94.8 µM (inactive). Also, the GI50 with SK-MEL-2, with EKVX and in the assay with UO-31 was > 100 µM (inactive) throughout.
For the compound `O=[N+]([O-])c1cc2c(cc1O)[nH]c1cccc([N+](=O)[O-])c12`, the GI50 with UACC-257 is > 100 µM (inactive); in the assay on TK-10, > 100 µM (inactive); in the assay on HCC 2998 it was > 100 µM (inactive); in the assay with HCT-15 it was more than 100 µM; in the assay with SF-295, > 100 µM (inactive); in the assay on OVCAR-5 it was > 100 µM (inactive). Further, the GI50 in the assay with CAKI-1, in the assay on OVCAR-8, with NCI-H522, with SK-MEL-28, in the assay with OVCAR-3 and in the assay on SNB-75 was > 100 µM (inactive) in each case. Besides, the GI50 with KM12, with SK-MEL-2, with SR and with UO-31 was > 100 µM (inactive) throughout.
As for `COc1ccc(NC(=O)CC(=O)n2nc(-c3ccccc3)c(/N=N/c3ccccc3C(=O)O)c2-c2ccccc2)cc1`, the GI50 in the assay on TK-10 is > 100 µM (inactive); in the assay with HCC 2998 it was > 100 µM (inactive); with HCT-15 it was more than 100 µM; in the assay with SF-295 it was 42.4 µM (inactive); in the assay on OVCAR-5 it was > 100 µM (inactive); in the assay with CAKI-1, > 100 µM (inactive). Further, the GI50 in the assay with OVCAR-8 is 25.2 µM (inactive); in the assay with NCI-H522, > 100 µM (inactive); in the assay on SK-MEL-28 it was 74.5 µM (inactive); in the assay with OVCAR-3, > 100 µM (inactive); in the assay on KM12, > 100 µM (inactive); in the assay with SK-MEL-2, > 100 µM (inactive). Also, the GI50 is 34.6 µM (inactive) with EKVX, 62.2 µM (inactive) in the assay on SR and > 100 µM (inactive) with UO-31.
In the case of `COc1ccc2c(C(=O)O)cc3cc(OC)c(OC)cc3c2c1`, the GI50 with UACC-257 was > 100 µM (inactive); with TK-10, > 100 µM (inactive); in the assay on HCC 2998 it was > 100 µM (inactive); in the assay on HCT-15, more than 100 µM; in the assay with SF-295 it was > 100 µM (inactive); with OVCAR-5, > 100 µM (inactive). Moreover, the GI50 in the assay with OVCAR-8, in the assay with NCI-H522, in the assay with SK-MEL-28, with OVCAR-3, in the assay with SNB-75 and in the assay on KM12 was > 100 µM (inactive) throughout. Moreover, the GI50 in the assay on SK-MEL-2, with EKVX, with SR and in the assay on UO-31 was > 100 µM (inactive) in each case.
Regarding `COC(=O)Cc1cc(=O)[nH]c2c1C(=O)CCC2`, the GI50 in the assay on UACC-257 is > 100 µM (inactive); in the assay on TK-10, > 100 µM (inactive); in the assay on HCC 2998 it was > 100 µM (inactive); in the assay on HCT-15, more than 100 µM; with SF-295, > 100 µM (inactive); in the assay on OVCAR-5, > 100 µM (inactive). Also, the GI50 in the assay with OVCAR-8, in the assay with NCI-H522, with SK-MEL-28, with OVCAR-3, in the assay with KM12 and with SK-MEL-2 was > 100 µM (inactive) throughout. Also, the GI50 in the assay on EKVX, with SR and in the assay with UO-31 was > 100 µM (inactive) each time.
Consider `N#Cc1c(NN)nc(NN)c(C#N)c1-c1ccccc1`, for which the GI50 in the assay with UACC-257 is > 100 µM (inactive); in the assay on TK-10, > 100 µM (inactive); in the assay on HCC 2998 it was > 100 µM (inactive); in the assay with HCT-15, more than 100 µM; in the assay on SF-295 it was > 100 µM (inactive); in the assay with OVCAR-5 it was > 100 µM (inactive). In addition, the GI50 in the assay on CAKI-1, in the assay on OVCAR-8, in the assay with A498, in the assay on SK-MEL-28, in the assay on OVCAR-3 and in the assay with SNB-75 was > 100 µM (inactive) each time. Moreover, the GI50 in the assay with KM12, in the assay on SK-MEL-2, in the assay with EKVX and in the assay with UO-31 was > 100 µM (inactive) throughout.
As to `CCC(=O)c1cn(C)c(=O)c2ccccc12`, the GI50 with UACC-257 was > 100 µM (inactive); in the assay with TK-10, > 100 µM (inactive); in the assay with HCC 2998, > 100 µM (inactive); with HCT-15, more than 100 µM; in the assay on SF-295, > 100 µM (inactive); with OVCAR-5, > 100 µM (inactive). Further, the GI50 in the assay on CAKI-1 was > 100 µM (inactive); in the assay with OVCAR-8 it was > 100 µM (inactive); in the assay on NCI-H522, > 100 µM (inactive); in the assay on SK-MEL-28 it was > 100 µM (inactive); in the assay on OVCAR-3, > 100 µM (inactive); with SNB-75, 36.5 µM (inactive). Moreover, the GI50 in the assay on KM12, with SK-MEL-2, in the assay on EKVX, in the assay on SR and with UO-31 was > 100 µM (inactive) each time.
As for `CCOC(=O)C/C(=N\c1cc(C)on1)N(CC)CC.[O-][Cl+3]([O-])([O-])O`, the GI50 was > 100 µM (inactive) in the assay with TK-10; more than 100 µM with HCT-15; > 100 µM (inactive) in the assay on OVCAR-5; > 100 µM (inactive) in the assay on CAKI-1; > 100 µM (inactive) with OVCAR-8; > 100 µM (inactive) in the assay with NCI-H522. Further, the GI50 in the assay on A498, in the assay on SK-MEL-28, with OVCAR-3, with SNB-75, with KM12 and with SK-MEL-2 was > 100 µM (inactive) each time. The GI50 in the assay with EKVX, in the assay with SR and in the assay with UO-31 was > 100 µM (inactive) each time.
As to `CC(=O)CC(=O)CCCC(=O)Nc1ccc(Cl)cc1C`, the GI50 in the assay with UACC-257 was > 100 µM (inactive); with TK-10, > 100 µM (inactive); with HCC 2998 it was > 100 µM (inactive); in the assay on HCT-15 it was more than 100 µM; in the assay on SF-295, > 100 µM (inactive); in the assay with OVCAR-5, > 100 µM (inactive). Besides, the GI50 with CAKI-1, in the assay on OVCAR-8, in the assay with NCI-H522, in the assay with A498, in the assay with OVCAR-3 and in the assay on KM12 was > 100 µM (inactive) each time. The GI50 in the assay on SK-MEL-2, with EKVX and with UO-31 was > 100 µM (inactive) in each case.
